# System: Crude diglycosidase
# Experiment: Examination of pH in the conversion into isoflavone aglycons by diglycosidase using soybean materials
# Type: biochemical, Penicillium multicolor IAM7153
# Set-up: Decomposition efficiency of genistin family in soymilk / Decomposition efficiency of genistin family in defatted soybean / Decomposition efficiency of daidzin family in defatted soybean: concentration or dose not given beside the values
# Details: for Decomposition efficiency of daidzin family in roasted soy flour: 55° C.
# Method: A substrate solution of 450 μL was prepared by suspending 50 mg of each soybean material (roasted soy flour (manufactured by Fuji Shokuryo K.K.), soymilk (manufactured by Gitoh Shokuhin K.K.), defatted soybean (manufactured by Fuji Seiyu K.K.), concentrated soybean protein (manufactured by Fuji Seiyu K.K.)), and adjusting the pH to 2 to 11 with hydrochloric acid or sodium hydroxide. Each enzyme solution of pH 2–11 wherein diglycosidase activity of crude diglycosidase was adjusted to 1.88 AU/mL was added thereto in an amount of 50 μL and the whole was reacted at 55° C. at the total volume of 500 μL. To the reaction mixture was added 700 μL of ethanol after 0, 1, 3, and 6 hours of the reaction. After stirring and ultrasonication, the mixture was subjected to centrifugal separation at 15,000 rpm and 4° C. for 10 minutes. The supernatant was filtered through a filter and the existence of isoflavone glycosides and aglycon isoflavones contained in the reaction mixture was detected by HLPC (Tables 15 to 26).
# [1] = pH6.6, heat treatment of enzyme: no, reaction time 0 h
# [2] = pH6.6, heat treatment of enzyme: no, reaction time 1 h
# [3] = pH6.6, heat treatment of enzyme: no, reaction time 3 h
# [4] = pH6.6, heat treatment of enzyme: no, reaction time 6 h
# [5] = pH6.6, heat treatment of enzyme: yes, reaction time 6 h
structure (smiles),measurement,setting,value
"CC(=O)OC[C@H]1O[C@@H](Oc2ccc3c(=O)c(-c4ccc(O)cc4)coc3c2)[C@H](O)[C@@H](O)[C@@H]1O [acetyldaidzin, 6″-O-acetyldaidzin]",Decomposition efficiency of daidzin family in roasted soy flour,"pH5, heat treatment of enzyme no, reaction time 0 h",47.7
same,Decomposition efficiency of daidzin family in roasted soy flour,"pH5, heat treatment of enzyme no, reaction time 1 h",38.5
same,Decomposition efficiency of daidzin family in roasted soy flour,"pH5, heat treatment of enzyme no, reaction time 3 h",24.7
same,Decomposition efficiency of daidzin family in roasted soy flour,"pH5, heat treatment of enzyme no, reaction time 6 h",15.2
same,Decomposition efficiency of daidzin family in roasted soy flour,"pH5, heat treatment of enzyme yes, reaction time 6 h",45.0
same,Decomposition efficiency of daidzin family in concentrated soybean protein,"pH5.1, heat treatment of enzyme: no, reaction time 0 h",44.6%
same,Decomposition efficiency of daidzin family in concentrated soybean protein,"pH5.1, heat treatment of enzyme: no, reaction time 1 h",43.4%
same,Decomposition efficiency of daidzin family in concentrated soybean protein,"pH5.1, heat treatment of enzyme: no, reaction time 3 h",37.0%
same,Decomposition efficiency of daidzin family in concentrated soybean protein,"pH5.1, heat treatment of enzyme: no, reaction time 6 h",31.2%
same,Decomposition efficiency of daidzin family in concentrated soybean protein,"pH5.1, heat treatment of enzyme: yes, reaction time 6 h",43.4%
same,Decomposition efficiency of daidzin family in defatted soybean,"pH5.4, heat treatment of enzyme: no, reaction time 0 h",not detected
same,Decomposition efficiency of daidzin family in defatted soybean,"pH5.4, heat treatment of enzyme: no, reaction time 1 h",not detected
same,Decomposition efficiency of daidzin family in defatted soybean,"pH5.4, heat treatment of enzyme: no, reaction time 3 h",not detected
same,Decomposition efficiency of daidzin family in defatted soybean,"pH5.4, heat treatment of enzyme: no, reaction time 6 h",not detected
same,Decomposition efficiency of daidzin family in defatted soybean,"pH5.4, heat treatment of enzyme: yes, reaction time 6 h",not detected
same,Decomposition efficiency of daidzin family in soymilk,"pH6.2, heat treatment of enzyme: no, reaction time 0 h",not detected
same,Decomposition efficiency of daidzin family in soymilk,"pH6.2, heat treatment of enzyme: no, reaction time 1 h",not detected
same,Decomposition efficiency of daidzin family in soymilk,"pH6.2, heat treatment of enzyme: no, reaction time 3 h",not detected
same,Decomposition efficiency of daidzin family in soymilk,"pH6.2, heat treatment of enzyme: no, reaction time 6 h",not detected
same,Decomposition efficiency of daidzin family in soymilk,"pH6.2, heat treatment of enzyme: yes, reaction time 6 h",not detected
same,Decomposition efficiency of daidzin family in roasted soy flour,"pH6.5, heat treatment of enzyme no, reaction time 0 h",48.2
same,Decomposition efficiency of daidzin family in roasted soy flour,"pH6.5, heat treatment of enzyme no, reaction time 1 h",45.4
same,Decomposition efficiency of daidzin family in roasted soy flour,"pH6.5, heat treatment of enzyme no, reaction time 3 h",39.2
same,Decomposition efficiency of daidzin family in roasted soy flour,"pH6.5, heat treatment of enzyme no, reaction time 6 h",34.4
same,Decomposition efficiency of daidzin family in roasted soy flour,"pH6.5, heat treatment of enzyme yes, reaction time 6 h",43.4
same,Decomposition efficiency of daidzin family in concentrated soybean protein,[1],44.8%
same,Decomposition efficiency of daidzin family in defatted soybean,[1],not detected
same,Decomposition efficiency of daidzin family in concentrated soybean protein,[2],43.9%
same,Decomposition efficiency of daidzin family in defatted soybean,[2],not detected
same,Decomposition efficiency of daidzin family in concentrated soybean protein,[3],42.9%
same,Decomposition efficiency of daidzin family in defatted soybean,[3],not detected
same,Decomposition efficiency of daidzin family in concentrated soybean protein,[4],41.2%
same,Decomposition efficiency of daidzin family in defatted soybean,[4],not detected
same,Decomposition efficiency of daidzin family in concentrated soybean protein,[5],41.8%
same,Decomposition efficiency of daidzin family in defatted soybean,[5],not detected
same,Decomposition efficiency of daidzin family in soymilk,"pH7.2, heat treatment of enzyme: no, reaction time 0 h",not detected
same,Decomposition efficiency of daidzin family in soymilk,"pH7.2, heat treatment of enzyme: no, reaction time 1 h",not detected
same,Decomposition efficiency of daidzin family in soymilk,"pH7.2, heat treatment of enzyme: no, reaction time 3 h",not detected
same,Decomposition efficiency of daidzin family in soymilk,"pH7.2, heat treatment of enzyme: no, reaction time 6 h",not detected
same,Decomposition efficiency of daidzin family in soymilk,"pH7.2, heat treatment of enzyme: yes, reaction time 6 h",not detected
same,Decomposition efficiency of daidzin family in defatted soybean,"pH7.8, heat treatment of enzyme: no, reaction time 0 h",not detected
same,Decomposition efficiency of daidzin family in defatted soybean,"pH7.8, heat treatment of enzyme: no, reaction time 1 h",not detected
same,Decomposition efficiency of daidzin family in defatted soybean,"pH7.8, heat treatment of enzyme: no, reaction time 3 h",not detected
same,Decomposition efficiency of daidzin family in defatted soybean,"pH7.8, heat treatment of enzyme: no, reaction time 6 h",not detected
same,Decomposition efficiency of daidzin family in defatted soybean,"pH7.8, heat treatment of enzyme: yes, reaction time 6 h",not detected
same,Decomposition efficiency of daidzin family in roasted soy flour,"pH8.5, heat treatment of enzyme no, reaction time 0 h",42.1
same,Decomposition efficiency of daidzin family in roasted soy flour,"pH8.5, heat treatment of enzyme no, reaction time 1 h",42.7
same,Decomposition efficiency of daidzin family in roasted soy flour,"pH8.5, heat treatment of enzyme no, reaction time 3 h",40.3
same,Decomposition efficiency of daidzin family in roasted soy flour,"pH8.5, heat treatment of enzyme no, reaction time 6 h",38.0
same,Decomposition efficiency of daidzin family in roasted soy flour,"pH8.5, heat treatment of enzyme yes, reaction time 6 h",37.3
same,Decomposition efficiency of daidzin family in concentrated soybean protein,"pH8.6, heat treatment of enzyme: no, reaction time 0 h",40.7%
same,Decomposition efficiency of daidzin family in concentrated soybean protein,"pH8.6, heat treatment of enzyme: no, reaction time 1 h",39.2%
same,Decomposition efficiency of daidzin family in concentrated soybean protein,"pH8.6, heat treatment of enzyme: no, reaction time 3 h",39.0%
same,Decomposition efficiency of daidzin family in concentrated soybean protein,"pH8.6, heat treatment of enzyme: no, reaction time 6 h",38.1%
same,Decomposition efficiency of daidzin family in concentrated soybean protein,"pH8.6, heat treatment of enzyme: yes, reaction time 6 h",37.7%
same,Decomposition efficiency of daidzin family in soymilk,"pH11.6, heat treatment of enzyme: no, reaction time 0 h",not detected
same,Decomposition efficiency of daidzin family in soymilk,"pH11.6, heat treatment of enzyme: no, reaction time 1 h",not detected
same,Decomposition efficiency of daidzin family in soymilk,"pH11.6, heat treatment of enzyme: no, reaction time 3 h",not detected
same,Decomposition efficiency of daidzin family in soymilk,"pH11.6, heat treatment of enzyme: no, reaction time 6 h",not detected
same,Decomposition efficiency of daidzin family in soymilk,"pH11.6, heat treatment of enzyme: yes, reaction time 6 h",not detected

# From patent US7118895B2, “Process for producing aglycon by using diglycosidase and flavor-improved food containing the aglycon and converting agent to be used in the process” (Amano Enzyme Inc., priority 2000, dated 2006)
